Experimental findings from US6169181A, “Compounds useful to treat retroviral infections” (Pharmacia & Upjohn Company, priority 1998, dated 2001) are described below.

Values joined by “and” are separate entries in the source; they are usually repeats but may differ in a detail not shown here. Equal entries are not always repeated. Where two headings read alike, the source gives them in different places.

The target in assay [1] is T1, HIV-1 protease (Human immunodeficiency virus type 1 group M subtype B, UniProt P04585). Briefly: biochemical. The conditions noted are these: Table I; for inhibition at 0.123 µM / inhibition at 0.37 µM / inhibition at 1.1 µM / inhibition at 3.3 µM / inhibition at 10 µM / inhibition at 30 µM: read-out: Protease % Inhib. Here is the method:
(§1) The HIV protease screening assay is based on fluorescently labeled substrate which can be resolved from nonlabeled cleavage product using special beads coated with streptavidin. The substrate is biotinylated at the amino terminal arginine and fluorescently labeled with fluorescein isothiocynate (FITC) at the carboxyl terminal lysine. This assay has been employed to detect novel, nonpeptidic inhibitors of HIV-1 protease. Substrate (20 μM of 0.2 μM), sample (10 μl of desired concentraion), and enzyme (10 μl of 0.1 μM) are added to a 96 well pandex plate. The assay is run in 0.1 M sodium acetate buffer at pH 5.5 in the presence of 1.0 M sodium chloride and 0.05% NP-40 with incubated in the dark for one hour at room temperature. Strepavidin coated polystyrene beads {40 μl of 0.1% (w/v)} are added and the plate is incubated in the dark for an additional half hour. The labeled cleavage product is separated from the unreacted substrate via filtration and is read on the Idexx screen machine. The data are analyzed by appropriate computer algorithms to ascertain percent inhibition values.

In assay [2] the target is T1, HIV-1 protease. Put plainly: biochemical. Here is the method:
as §1, with “This assay has been employed to detect novel, nonpeptidic inhibitors of HIV-1 protease.” left out
Determination of Ki values utilizes the same materials and equipment employed for percent inhibition studies. Two-fold serial dilutions are made for a given inhibitor from 2, 3 or 4 starting concentrations with a total of 24, 36 or 48 individual inhibitor concentrations. These dilutions are performed utilizing the BioMek robotics system. The assay consists of 10 μL of 40 nM HIV-1 protease, 10 μL of the various inhibitor concentrations, and 20 μL of 200 μM substrate (40 μL total). The reaction is allowed to proceed for 90 min at room temperature, terminated with 40 μL of avidin beads and processed (supra vide). An inhibitor with a known K; is run in parallel to verify the validity of the assay. The data is processed utilizing a computer program employing a nonlinear least square analysis of the data to generate the Ki values.

Where [3] appears, read: Table I, read-out: HIV Protease FITC Assay Ki.

As for “4-Pyridylsulfonamide, N-[4-[cyclopropyl(5,6,7,8,9,10-hexahydro-4-hydroxy-2-oxo-2H-cycloocta[b]pyran-3-yl)methyl]phenyl]- [Example 240]”, the “PROTEASE % INHIB.” value at HIV-1 protease [1] (Dose 0.123 μM) worked out at 96.32%; on HIV-1 protease [1] (Dose 0.370 μM), 100.98%; at HIV-1 protease [1] (Dose 1.100 μM), 102.71%; at HIV-1 protease [1] (Dose 3.300 μM) it was 101.88%; at HIV-1 protease [1] (Dose 10.900 μM), 104.28%; on HIV-1 protease [1] (Dose 30.000 μM) it was 107.17%. For the same molecule, the Ki on HIV-1 protease [2] (setting [3]) came to 1.3 nM.
For `CC(C)CC(c1cccc(NS(=O)(=O)c2cn(C)cn2)c1)c1c(O)c2c(oc1=O)CCCCCC2` (single isomer, unassigned) [Example 8, (R or S)-N-[3-1-(5,6,7,8,9,10-Hexahydro-4-hydroxy-2-oxo-2H-cycloocta[b]pyran-3-yl)-3-methylbutyl]phenyl]-1-methyl-1H-imidazole-4-sulfonamide], the inhibition at 0.123 µM on HIV-1 protease [1] (Dose 0.123 μM) is 99.2%. Besides, at HIV-1 protease [1] (Dose 0.370 μM), the inhibition at 0.37 µM was found to be 110%. The inhibition at 1.1 µM at HIV-1 protease [1] (Dose 1.100 μM) amounted to 103%. At HIV-1 protease [1] (Dose 3.300 μM), the inhibition at 3.3 µM was found to be 110%. The inhibition at 10 µM on HIV-1 protease [1] (Dose 10.000 μM) turned out to be 105%. Further, at HIV-1 protease [1] (Dose 30.000 μM), the inhibition at 30 µM was found to be 102%. Further, the Ki on HIV-1 protease [2] (setting [3]) stood at 0.35 nM.
On to `CC(C)CC(c1cccc(NS(=O)(=O)c2cn(C)cn2)c1)c1c(O)c2c(oc1=O)CCCCCC2` (single isomer, unassigned) [Example 9, (R or S)-N-[3-1-(5,6,7,8,9,10-Hexahydro-4-hydroxy-2-oxo-2H-cycloocta[b]pyran-3-yl)-3-methylbutyl]phenyl]-1-methyl-1H-imidazole-4-sulfonamide], for which, on HIV-1 protease [1] (Dose 0.123 μM), the inhibition at 0.123 µM was determined as 99.1%. Also, the inhibition at 0.37 µM on HIV-1 protease [1] (Dose 0.370 μM) came out at 104%. The inhibition at 1.1 µM at HIV-1 protease [1] (Dose 1.100 μM) turned out to be 105%. The inhibition at 3.3 µM on HIV-1 protease [1] (Dose 3.300 μM) was determined as 105%. Also, the inhibition at 10 µM at HIV-1 protease [1] (Dose 10.000 μM) amounted to 107%. At HIV-1 protease [1] (Dose 30.000 μM), the inhibition at 30 µM was found to be 108%. The Ki on HIV-1 protease [2] (setting [3]) was 0.42 nM.
As to `CCCC1(CCC)CC(O)=C(C(CC)c2cccc(NS(=O)(=O)c3cccc4cccnc34)c2)C(=O)O1` (single isomer, unassigned) [Example 52, (R or S)-N-[3-[1-(4-Hydroxy-2-oxo-6,6-dipropyl-5,6-dihydro-2H-pyran-3-yl)-propyl]-phenyl]-8-quinolinesulfonamide], the “PROTEASE % INHIB.” value on HIV-1 protease [1] (Dose 0.123 μM) amounted to 85.08%. For the same molecule, on HIV-1 protease [1] (Dose 0.370 μM), the inhibition at 0.37 µM was 87.3%. Besides, the inhibition at 1.1 µM at HIV-1 protease [1] (Dose 1.100 μM) amounted to 92.6%. In addition, the inhibition at 3.3 µM at HIV-1 protease [1] (Dose 3.300 μM) is 97.4%. Besides, the inhibition at 10 µM on HIV-1 protease [1] (Dose 10.000 μM) was 97.2%. At HIV-1 protease [1] (Dose 30.000 μM), the inhibition at 30 µM was 88.9%. In addition, the Ki on HIV-1 protease [2] (setting [3]) was found to be 1.4 nM.
With `CCCC1(CCC)CC(O)=C(C(CC)c2cccc(NS(=O)(=O)c3cn(C)cn3)c2)C(=O)O1` (single isomer, unassigned) [Example 53, (R or S)-N-[3-[1-(4-hydroxy-2-oxo-6,6-dipropyl-5,6-dihydro-2H-pyran-3-yl)-propyl]-phenyl]-1-methyl-1H-imidazole-4-sulfonamide], the entries for the “PROTEASE % INHIB.” value on HIV-1 protease [1] (Dose 0.123 μM), at HIV-1 protease [1] (Dose 0.370 μM) and at HIV-1 protease [1] (Dose 1.100 μM) were 88.61%, 97.74% and 97.95%, respectively. Also, at HIV-1 protease [1] (Dose 3.300 μM), the inhibition at 3.3 µM was 99.6%. Besides, the inhibition at 10 µM at HIV-1 protease [1] (Dose 10.000 μM) stood at 90.2%. For the same molecule, the inhibition at 30 µM at HIV-1 protease [1] (Dose 30.000 μM) was 84.4%. For the same molecule, on HIV-1 protease [2] (setting [3]), the Ki is 0.9 nM.
As for `CCCC1(CCC)CC(O)=C(C(CC)c2cccc(NS(=O)(=O)c3cccc4cccnc34)c2)C(=O)O1` (single isomer, unassigned) [Example 54, (S or R)-N-[3-[1-(4-Hydroxy-2-oxo-6,6-dipropyl-5,6-dihydro-2H-pyran-3-yl)-propyl]-phenyl]-8-quinolinesulfonamide], the “PROTEASE % INHIB.” value at HIV-1 protease [1] (Dose 0.123 μM) is listed as 46.64%; at HIV-1 protease [1] (Dose 0.370 μM), 72.41%; at HIV-1 protease [1] (Dose 1.100 μM) it was 87.91%; on HIV-1 protease [1] (Dose 3.300 μM), 89.11%; at HIV-1 protease [1] (Dose 10.000 μM), 87.77%; on HIV-1 protease [1] (Dose 30.000 μM), 91.99%. Further, at HIV-1 protease [2] (setting [3]), the Ki is 13.3 nM.
For `CCCC1(CCC)CC(O)=C(C(CC)c2cccc(NS(=O)(=O)c3cn(C)cn3)c2)C(=O)O1` (single isomer, unassigned) [Example 55, (S or R)-N-[3-[1-(4-hydroxy-2-oxo-6,6-dipropyl-5,6-dihydro-2H-pyran-3-yl)-propyl]-phenyl]-1-methyl-1H-imidazole-4-sulfonamide], the “PROTEASE % INHIB.” value is recorded as less than 10% at HIV-1 protease [1] (Dose 0.123 μM); 18.77% on HIV-1 protease [1] (Dose 0.370 μM); 58.27% on HIV-1 protease [1] (Dose 1.100 μM); 86.98% on HIV-1 protease [1] (Dose 3.300 μM); 98.33% at HIV-1 protease [1] (Dose 10.000 μM); 85.88% at HIV-1 protease [1] (Dose 30.000 μM). Also, the Ki on HIV-1 protease [2] (setting [3]) is 1.7 nM.
Take `CCCC1(CCC)CC(O)=C(C(c2cccc(NS(=O)(=O)c3cn(C)cn3)c2)C2CC2)C(=O)O1` (single isomer, unassigned) [Example 56, (R or S)-N-[3-[1-(4-Hydroxy-2-oxo-6,6-dipropyl-5,6-dihydro-2H-pyran-3-yl)-cyclopropylmethyl]-phenyl]-1-methyl-1H-imidazole-4-sulfonamide]: the inhibition at 0.123 µM at HIV-1 protease [1] (Dose 0.123 μM) is 104%. In addition, on HIV-1 protease [1] (Dose 0.370 μM), the inhibition at 0.37 µM is 108%. For the same molecule, the inhibition at 1.1 µM at HIV-1 protease [1] (Dose 1.100 μM) is 105%. Besides, at HIV-1 protease [1] (Dose 3.300 μM), the inhibition at 3.3 µM was determined as 105%. Besides, at HIV-1 protease [1] (Dose 10.000 μM), the inhibition at 10 µM came out at 115%. In addition, the inhibition at 30 µM on HIV-1 protease [1] (Dose 30.000 μM) was determined as 111%. Further, the inhibition constant (Ki) on HIV-1 protease [2] (setting [3]) amounted to 0.23 nM.
For the molecule `CCCC1(CCC)CC(O)=C(C(c2cccc(NS(=O)(=O)c3cn(C)cn3)c2)C2CC2)C(=O)O1` (single isomer, unassigned) [Example 57], the “PROTEASE % INHIB.” value on HIV-1 protease [1] (Dose 0.123 μM) is recorded as 99.07%; on HIV-1 protease [1] (Dose 0.370 μM), 105.17%; at HIV-1 protease [1] (Dose 1.100 μM), 110.68%; on HIV-1 protease [1] (Dose 3.300 μM), 97.8%; on HIV-1 protease [1] (Dose 10.000 μM), 104.74%; on HIV-1 protease [1] (Dose 30.000 μM), 115.02%. The Ki at HIV-1 protease [2] (setting [3]) came to 0.36 nM.
For `CC[C@H](Cc1ccccc1)c1cc(O)c(C(c2cccc(NS(=O)(=O)c3cn(C)cn3)c2)C2CC2)c(=O)o1` (single isomer, unassigned) [Example 137, N-(3-(R or S)-{Cyclopropyl-[6-(1-(R)-ethylphenethyl)-4-hydroxy-2-oxo-2H-pyran-3-yl]-methyl}-phenyl)-1-methyl-1H-imidazole-4-sulfonamide], on HIV-1 protease [1] (Dose 0.123 μM), the inhibition at 0.123 µM stood at 98.8%. In addition, the inhibition at 0.37 µM on HIV-1 protease [1] (Dose 0.370 μM) was 91.5%. The inhibition at 1.1 µM at HIV-1 protease [1] (Dose 1.100 μM) was 101%. Further, the inhibition at 3.3 µM on HIV-1 protease [1] (Dose 3.300 μM) turned out to be 110%. Moreover, the inhibition at 10 µM at HIV-1 protease [1] (Dose 10.000 μM) is 98.2%. In addition, at HIV-1 protease [1] (Dose 30.000 μM), the inhibition at 30 µM was found to be 93.8%. For the same molecule, the Ki on HIV-1 protease [2] (setting [3]) is 0.52 nM and 0.7 nM.
Turning to `CCC(C1=C(O)CC(CCc2ccc(F)cc2)(CCc2ccc(F)cc2)OC1=O)c1cccc(NS(=O)(=O)c2ccc(C#N)cn2)c1` (centres unmarked) [Example 259, N-[3-{1-(4-Hydroxy-5,6-dihydro-2-oxo-6,6-bis(2-(4-fluorophenyl)ethyl)-2H-pyran-3-yl)propyl}phenyl]-5-cyanopyridine-2-sulfonamide], the Ki on HIV-1 protease [2] (setting [3]) was determined as 2.2 nM.
Same read-out and setting: the value for `CCCC1(CCC)CC(O)=C(C(c2cccc(NS(=O)(=O)c3ccc(C#N)cn3)c2)C(C)(C)C)C(=O)O1` (centres unmarked) [Example 260, N-[3-{1-(4-Hydroxy-5,6-dihydro-2-oxo-6,6-dipropyl-2H-pyran-3-yl)-2,2-dimethylpropyl}phenyl]-5-cyanopyridine-2-sulfonamide] was 2 nM.
Still for that read-out and setting: as for `CCCC1(CCC)CC(O)=C(C(c2cccc(NS(=O)(=O)c3cn(C)cn3)c2)C(C)(C)C)C(=O)O1` (centres unmarked) [Example 261, N-[3-{1-(4-Hydroxy-5,6-dihydro-2-oxo-6,6-dipropyl-2H-pyran-3-yl)-2,2-dimethylpropyl}phenyl]-1-methyl-1H-imidazole-4-sulfonamide], the figure is 0.87 nM.
Turning to `CCC(C1=C(O)C2CCCCC2OC1=O)c1cccc(NS(=O)(=O)c2ccc(C#N)cc2)c1` (centres unmarked) [Example 371], the inhibitory constant (Ki) on HIV-1 protease [2] (read-out: FITC KI) came to 15.4 nM.
